Experimental data taken from paper PMC8595653, “Activation of specific bitter taste receptors by olive oil phenolics and secoiridoids” (Scientific Reports, 2021).
“Also recorded” adds a separate entry of the source. Blank lines part the entries; values can stand above or below the compound they belong to.

Legend:
TAS2R14 = molecular target: T1, TAS2R14 (Homo sapiens, UniProt Q9NYV8); assay: Calcium mobilization functional assay, TAS2R14 co-expressed with Gα16-gust44 and GCaMP in HEK293E cells; format: cell-based
T1 construct: first 45 amino acids of rat somatostatin type 3 receptor (SSTR3) export tag (N); expressed in transfected cells; host or cells: HEK293E
T1 sequence (Q9NYV8 1-317): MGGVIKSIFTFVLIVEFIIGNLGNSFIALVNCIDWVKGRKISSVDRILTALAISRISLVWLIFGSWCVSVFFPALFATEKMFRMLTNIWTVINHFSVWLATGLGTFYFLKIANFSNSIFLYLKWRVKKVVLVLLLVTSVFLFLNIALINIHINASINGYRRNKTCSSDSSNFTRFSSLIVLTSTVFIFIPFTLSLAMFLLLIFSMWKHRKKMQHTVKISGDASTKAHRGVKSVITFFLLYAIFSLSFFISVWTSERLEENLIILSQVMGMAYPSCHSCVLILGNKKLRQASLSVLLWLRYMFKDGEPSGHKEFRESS
Method: (§1) All constructs were confirmed by DNA sequencing.
(§2) Data from single dose experiments were collected as duplicates. […] Data represent mean ± SD.
(§3) To characterize the bitterness of olive oil phenolic compounds, we performed calcium mobilization experiments. The 25 bitter taste receptors, G protein chimera (Gα16-gus44), and the GCaMP calcium sensor[68] were transiently expressed in HEK293E cells. Twelve olive oil phenolic compounds (Fig. 1) were tested for bitter taster receptor activation (Fig. 3). […] Ligstroside aglycon, and Oleuropein aglycon activated TAS2R1, TAS2R8 and TAS2R14 receptors. To validate the single dose scanning results, we performed concentration–response experiments for all the compounds toward receptors TAS2R1, TAS2R8, and TAS2R14 that produced the most significant responses (Fig. 4).

TAS2R20 = molecular target: T2, TAS2R20 (Homo sapiens, UniProt P59543); assay: Calcium mobilization functional assay, TAS2R20 (RTP3 and RTP4 co-expressed); format: cell-based; conditions: 10 mM, versus empty pcDNA vector
T2 construct: first 45 amino acids of rat somatostatin type 3 receptor (SSTR3) export tag (N); expressed in transfected cells; host or cells: HEK293E
Description: as §1, §2

TAS2R8 = molecular target: T3, TAS2R8 (Homo sapiens, UniProt Q9NYW2); assay: Calcium mobilization functional assay, TAS2R8 co-expressed with Gα16-gust44 and GCaMP in HEK293E cells; format: cell-based; conditions: for potency and efficacy on TAS2R8 in words: concentration-response experiments, maximal concentration 10 mM for oleuropein; for activation of TAS2R8 over background: single dose 300 µM; for times more potent than oleuropein: potency of bitter receptor activation relative to oleuropein (1)
T3 construct: first 45 amino acids of rat somatostatin type 3 receptor (SSTR3) export tag (N); expressed in transfected cells; host or cells: HEK293E
T3 sequence (Q9NYW2 1-309): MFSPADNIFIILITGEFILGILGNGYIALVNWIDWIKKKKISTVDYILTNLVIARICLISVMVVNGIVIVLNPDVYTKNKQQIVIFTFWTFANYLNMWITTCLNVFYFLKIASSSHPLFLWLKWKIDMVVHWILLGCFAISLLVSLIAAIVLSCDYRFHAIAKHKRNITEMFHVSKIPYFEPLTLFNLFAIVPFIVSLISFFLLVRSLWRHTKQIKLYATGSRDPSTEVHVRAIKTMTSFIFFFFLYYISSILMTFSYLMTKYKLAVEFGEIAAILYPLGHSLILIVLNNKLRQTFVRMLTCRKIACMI
Method: as §1, §2, §3

TAS2R46 = TAS2R46 (Homo sapiens, UniProt P59540); conditions: 300 µM, versus empty pcDNA vector
Method: (§4) 25 human TAS2R genes were subcloned into the pcDNA 3.1 vector, as previously descripted in the literature[44],[53]. The first 45 amino acids of the rat somatostatin type 3 receptor, which serves as a cell-surface-targeting signal, were added to the N-termini of the TAS2Rs to target them more efficiently to the cell surface. Herpes simplex virus (HSV) glycoprotein D epitopes were added to the carboxy termini of the receptors for immunocytochemistry. All constructs were confirmed by DNA sequencing.
(§5) HEK293E cells were cultured at 37 °C in DMEM (Thermo Fisher Scientific), supplemented with 10% fetal bovine serum (FBS) and 1% Penicillin Streptomycin. The cells were seeded onto 96-well plates (Clear Bottom Black Polystyrene Poly-D-Lysine Coated Microplates, Corning life sciences) at a density of 50,000 (in 100 μl DMEM) per well, and cultured at 37 °C for overnight. On the second day following seeding, the medium was changed to OPTI-MEM supplemented with 5% FBS (filtered) before co-transfection using Polyethylenimine (PEI) (1.6 μg/well) with plasmid DNAs encoding TAS2Rs (0.1 μg/well), Gα16-gust44 (0.06 μg/well) and the GCaMP calcium sensor (0.035 μg/well). After 24 h, the medium was changed to fresh OPTI-MEM supplemented with 5% FBS (filtered) and 0.1% Plasmocin (InvivoGen). […]

TAS2R1 = molecular target: T4, TAS2R1 (Homo sapiens, UniProt Q9NYW7); assay: Calcium mobilization functional assay, TAS2R1 co-expressed with Gα16-gust44 and GCaMP in HEK293E cells; format: cell-based
T4 construct: first 45 amino acids of rat somatostatin type 3 receptor (SSTR3) export tag (N); expressed in transfected cells; host or cells: HEK293E
T4 sequence (Q9NYW7 1-299): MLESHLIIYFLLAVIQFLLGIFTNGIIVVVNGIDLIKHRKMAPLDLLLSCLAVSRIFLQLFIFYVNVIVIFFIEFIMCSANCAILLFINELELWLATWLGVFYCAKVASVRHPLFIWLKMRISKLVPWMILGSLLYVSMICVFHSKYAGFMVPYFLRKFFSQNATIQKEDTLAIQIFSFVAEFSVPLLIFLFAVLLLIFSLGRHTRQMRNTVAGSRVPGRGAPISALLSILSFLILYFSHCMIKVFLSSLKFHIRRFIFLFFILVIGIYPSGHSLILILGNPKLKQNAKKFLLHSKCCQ
Method: as §1, §2, §3

25 human TAS2Rs = assay: Single dose scanning of phenolic compounds on the 25 bitter taste receptors (calcium mobilization, HEK293E); format: cell-based; conditions: single dose 300 µM, 25 TAS2Rs, N = 2
Method: as §1, §2, §3
Figure 3 Phenolic compound bitter taste activity tests on hTAS2Rs. Relative fluorescence signals caused by phenolic compound activation of the receptors and the empty vector as a negative control. The concentration of the compounds used was [300 µM], except for Ligstroside aglycon and Oleuropein aglycon [200 µM], oleuropein that was [3 mM]. The asterisks indicate significant differences tested by one-way ANOVA (***p < 0.0001) (N = 2). Data represent mean ± SD.

TAS2R38 = TAS2R38 (Homo sapiens, UniProt P59533); conditions: 1 mM, versus empty pcDNA vector
Method: as §4, §5

TAS2R30 = molecular target: T5, TAS2R30 (Homo sapiens, UniProt P59541); assay: Calcium mobilization functional assay, TAS2R30; format: cell-based; conditions: 300 µM, versus empty pcDNA vector
T5 construct: first 45 amino acids of rat somatostatin type 3 receptor (SSTR3) export tag (N); expressed in transfected cells; host or cells: HEK293E
Description: as §1, §2

[1] = HEK293E, normalized to the highest response of TAS2R8 to oleuropein aglycon (100%), N = 3

Sequence of TAS2R46 (P59540 whole entry): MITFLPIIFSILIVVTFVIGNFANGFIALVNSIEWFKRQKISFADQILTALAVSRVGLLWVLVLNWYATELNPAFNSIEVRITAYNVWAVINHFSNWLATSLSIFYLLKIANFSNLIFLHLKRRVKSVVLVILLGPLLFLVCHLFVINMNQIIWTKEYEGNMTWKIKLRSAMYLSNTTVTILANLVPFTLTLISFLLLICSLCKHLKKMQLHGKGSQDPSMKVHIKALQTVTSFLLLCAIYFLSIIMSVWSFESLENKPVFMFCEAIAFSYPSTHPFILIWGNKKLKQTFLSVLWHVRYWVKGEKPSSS
Sequence of TAS2R38 (P59533 whole entry): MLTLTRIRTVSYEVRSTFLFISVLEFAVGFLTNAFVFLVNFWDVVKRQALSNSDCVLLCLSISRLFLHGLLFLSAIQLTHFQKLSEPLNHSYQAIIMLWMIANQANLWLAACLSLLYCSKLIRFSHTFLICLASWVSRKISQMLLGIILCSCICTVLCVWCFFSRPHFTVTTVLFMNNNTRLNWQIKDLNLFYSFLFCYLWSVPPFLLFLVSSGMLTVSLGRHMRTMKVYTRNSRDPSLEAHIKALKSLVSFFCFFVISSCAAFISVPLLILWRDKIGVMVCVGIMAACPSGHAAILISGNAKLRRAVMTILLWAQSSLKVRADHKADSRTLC
T5 sequence (P59541 whole entry): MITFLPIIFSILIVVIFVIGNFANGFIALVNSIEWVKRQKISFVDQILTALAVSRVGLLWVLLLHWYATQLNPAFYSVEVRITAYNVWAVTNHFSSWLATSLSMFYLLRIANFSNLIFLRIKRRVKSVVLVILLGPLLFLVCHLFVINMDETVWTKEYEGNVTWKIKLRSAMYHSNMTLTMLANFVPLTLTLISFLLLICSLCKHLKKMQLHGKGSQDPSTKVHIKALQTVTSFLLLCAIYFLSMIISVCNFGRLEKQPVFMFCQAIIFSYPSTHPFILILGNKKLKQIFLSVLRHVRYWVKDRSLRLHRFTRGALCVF
T2 sequence (P59543 whole entry): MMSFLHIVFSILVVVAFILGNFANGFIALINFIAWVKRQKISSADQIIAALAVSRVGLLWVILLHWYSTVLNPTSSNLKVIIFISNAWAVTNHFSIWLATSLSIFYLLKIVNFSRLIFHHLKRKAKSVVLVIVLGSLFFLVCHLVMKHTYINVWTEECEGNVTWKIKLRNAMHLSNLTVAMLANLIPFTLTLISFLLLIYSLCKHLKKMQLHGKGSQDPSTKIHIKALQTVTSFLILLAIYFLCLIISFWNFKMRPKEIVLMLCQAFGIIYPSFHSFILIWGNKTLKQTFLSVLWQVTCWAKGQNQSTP

SMILES: COC(=O)C1=COC(C)C(C=O)C1CC(=O)O (centres unmarked) [Elenolic acid, elenolic acid]
- potency and efficacy on TAS2R8 in words (TAS2R8): activated weakly and less potently; also recorded: activated TAS2R8 with lower potency
- activation of TAS2R8 over background (TAS2R8): activate
- activation of TAS2R8 over background (TAS2R8; listed as elenolic acid): activated significantly

SMILES: O=C1C[C@@H]2OCC=C3CN4CC[C@]56c7ccccc7N1[C@H]5[C@H]2[C@H]3C[C@H]46 [strychnine]
- activation of TAS2R46 (TAS2R46): activated

SMILES: C/C=C(/C=O)[C@@H](CC(=O)O)CC(=O)OCCc1ccc(O)cc1 [Oleocanthalic acid, oleocanthalic acid]
- potency and efficacy on TAS2R8 in words (TAS2R8): activated TAS2R8 with lower potency
- potency and efficacy on TAS2R8 in words (TAS2R8; listed as oleocanthalic acid): activated weakly and less potently
- activation of TAS2R8 over background (TAS2R8): activate
- activation of TAS2R8 over background (TAS2R8; listed as oleocanthalic acid): activated significantly

SMILES: COC(=O)C1=COC(C)C(C=O)C1CC(=O)OCCc1ccc(O)c(O)c1 (single isomer, unassigned; isomer b) [Oleuropein aglycon (5b), oleuropein aglycon closed-type (isomer B)]
- Emax (TAS2R8; [1]): 100%
- EC50 (TAS2R8; dose-response, N = 3, HEK293E): 57.3 µM
- times more potent than oleuropein (TAS2R8): ~50 times
- activation of TAS2R8 (TAS2R8; single dose 200 µM): activated
- potency and efficacy on TAS2R14 in words (TAS2R14; concentration-response experiments, compared with ligstroside aglycon): even less potent and efficacious
- activation of TAS2R14 (TAS2R14; single dose 200 µM): activated
- Emax (TAS2R1; [1]): 67.6%
- EC50 (TAS2R1; dose-response, N = 3, HEK293E): 142 µM
- activation of TAS2R1 (TAS2R1; single dose 200 µM): activated

SMILES: OCCc1ccc(O)c(O)c1 [Hydroxytyrosol, hydroxytyrosol]
- activation of any TAS2R (25 human TAS2Rs): failed to activate any bitter receptor

SMILES: CCCc1cc(=O)[nH]c(=S)[nH]1 [PROP, 6-n-propylthiouracil]
- activation of TAS2R38 (TAS2R38): activated

SMILES: COC(=O)C1=COC(C)C(C=O)C1CC(=O)OCCc1ccc(O)c(O)c1 (single isomer, unassigned; isomer a) [Oleuropein aglycon closed-type (5a), oleuropein aglycon closed-type (isomer A)]
- times more potent than oleuropein (TAS2R8): ~50 times

The remaining lines, values ahead:

- activation of TAS2R14 (TAS2R14; 0.3 mM, versus empty pcDNA vector): activated
SMILES: O=C(O)c1ccccc1Nc1cccc(C(F)(F)F)c1 [flufenamic acid, reference compound]

- activation of TAS2R20 (TAS2R20): activated
SMILES: O=C(O)c1cc(=O)c2c(OCC(O)COc3cccc4oc(C(=O)O)cc(=O)c34)cccc2o1 [cromolyn]

- activation of TAS2R30 (TAS2R30): activated
SMILES: CC[N+](CC)(CC(=O)Nc1c(C)cccc1C)Cc1ccccc1 [denatonium, denatonium benzoate]
